The target in data set [1] is T1, H-2 K^b (Mus musculus, UniProt P01901).
T1 sequence (P01901 22-369): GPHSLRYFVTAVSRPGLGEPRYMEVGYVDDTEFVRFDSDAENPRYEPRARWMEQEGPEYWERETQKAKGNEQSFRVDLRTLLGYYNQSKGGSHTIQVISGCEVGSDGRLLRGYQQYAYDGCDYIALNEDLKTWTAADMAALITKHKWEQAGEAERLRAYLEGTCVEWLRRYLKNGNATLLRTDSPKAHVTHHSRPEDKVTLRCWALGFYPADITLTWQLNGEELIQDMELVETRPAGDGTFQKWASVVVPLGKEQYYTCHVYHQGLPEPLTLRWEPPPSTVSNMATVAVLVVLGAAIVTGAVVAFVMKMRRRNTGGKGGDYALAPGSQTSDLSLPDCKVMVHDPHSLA
T1 sequence (P01887 21-119 partner): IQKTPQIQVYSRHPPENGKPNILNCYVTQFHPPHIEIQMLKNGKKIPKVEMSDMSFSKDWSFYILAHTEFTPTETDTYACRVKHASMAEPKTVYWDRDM
The data set can be described thus: RMA-S K^b stabilization assay.
Protocol: Data was analyzed after normalization and modeling using ECAnything (Prism 8). […] (A) RMA-S K^b stabilization assay. Variant peptides were titrated, added to RMA-S cells, and the relative H-2 K^b surface expression (MFI) was determined by flow cytometry. […] Each assay was repeated 4 times.
Titrated (100uM to 1pM) were added to RMA-S cells (5x10^4/well) and cultured overnight at 27C in 5% CO2. The cells were the shifted to 37C for 1–2 hours, and then their surface expression of K^b was analyzed by flow cytometry.
Normalized and fitted data from Fig 6A.using the ECanything nonlinear regression model (Prism 8) to fit the curves. By setting F = 50, the IC50 was determined for each data set. The points are the experimental data, the solid lines are the fitted line, and the dashed lines are the 95% confidence intervals. This experiment was repeated four times with similar results.

For data set [2] the following is noted: C57BL/6J mice, 37C, up to 60 minutes.

The record followed here is paper PMC7597557 (PLoS Pathogens, 2020).

Usually IC50 stands for the concentration that inhibits the measured activity by half. High values mean lower potency, low ones higher potency.

Peptide text beside a SMILES is read from it.

`CC[C@H](C)[C@H](N)C(=O)N[C@@H](CCSC)C(=O)N[C@@H](Cc1ccc(O)cc1)C(=O)N[C@@H](CC(N)=O)C(=O)N[C@@H](Cc1ccc(O)cc1)C(=O)N1CCC[C@H]1C(=O)N[C@H](C(=O)N[C@@H](CCSC)C(=O)O)[C@@H](C)O` [A10T] (H-IMYNYPTM-OH) registered an IC50 in data set [1] of 28.1 µM.

In data set [1], `CC[C@H](C)[C@H](N)C(=O)N[C@@H](CCSC)C(=O)N[C@@H](Cc1ccc(O)cc1)C(=O)N[C@@H](CC(N)=O)C(=O)N[C@@H](Cc1ccc(O)cc1)C(=O)N1CCC[C@H]1C(=O)N[C@H](C(=O)N[C@@H](CCSC)C(=O)O)C(C)C` [A10V] (H-IMYNYPVM-OH) came in with an IC50 of 21.3 µM. The same measure, in the same setting: the figure for `CC[C@H](C)[C@H](N)C(=O)N[C@@H](CCSC)C(=O)N[C@@H](Cc1ccc(O)cc1)C(=O)N[C@@H](CC(N)=O)C(=O)N[C@@H](Cc1ccc(O)cc1)C(=O)N1CCC[C@H]1C(=O)N[C@@H](C)C(=O)N[C@H](C(=O)O)[C@@H](C)CC` [M11I] (H-IMYNYPAI-OH) is 29.1 µM. On the same count and under the same terms, the figure for `CC[C@H](C)[C@H](N)C(=O)N[C@@H](CCSC)C(=O)N[C@@H](Cc1ccc(O)cc1)C(=O)N[C@@H](CC(N)=O)C(=O)N[C@@H](Cc1ccc(O)cc1)C(=O)N[C@@H](CO)C(=O)N[C@@H](C)C(=O)N[C@@H](CCSC)C(=O)O` [P9S] (H-IMYNYSAM-OH) is 59.3 µM. `CC[C@H](C)[C@H](NC(=O)[C@@H](NC(=O)[C@@H](N)CO)[C@@H](C)CC)C(=O)N[C@@H](CC(N)=O)C(=O)N[C@@H](Cc1ccccc1)C(=O)N[C@@H](CCC(=O)O)C(=O)N[C@@H](CCCCN)C(=O)N[C@@H](CC(C)C)C(=O)O` [reference compound] yielded an IC50 in data set [1] of 7.32 µM. On to IMANAPAM, for which the “Stabilization of K^b (in words)” value in data set [1] (RMA-S cells, surface K^b by flow cytometry, negative control peptide) is “failed to stabilize K^b”.

Turning to MSQIMYNYPTMLGHAGDMAGYAGTLQSLGAEIAV, the cleaved bond entry in data set [2] was “Y21-A22”.
